Data taken from the supplement of paper PMC13207355.
Counter-ions that a name gives are not always drawn.

Legend:
Settings in all cases: exposure time: 72 h
E13 [1] = patient-derived glioblastoma stem cells of classical subtype; test: surviving fraction (nuclei count normalised to DMSO); higher = more cells surviving (less toxic)
E21 [2] = patient-derived glioblastoma stem cells of mesenchymal subtype; test: as above
E28 [3] = patient-derived glioblastoma stem cells of classical subtype; test: as above
E31 [4] = patient-derived glioblastoma stem cells of proneural subtype; test: as above
E34 [5] = patient-derived glioblastoma stem cells of proneural subtype; test: as above
E57 [6] = patient-derived glioblastoma stem cells of mesenchymal subtype; test: as above
FT3469 [7] = normal neural stem cell line; test: as above
E13 [8] = test: phenotypic distance (Euclidean, principal components) from DMSO controls (arbitrary units); higher = stronger morphological change
E21 [9] = test: as above
E28 [10] = test: as above
E31 [11] = test: as above
E34 [12] = test: as above
E57 [13] = test: as above
FT3469 [14] = test: as above
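Wherever phenotypic distance (Euclidean, principal components) from DMSO controls is given: cell Painting imaging in 384-well plates, CellProfiler features reduced to at least 20 principal components, Euclidean distance versus same-plate DMSO vehicle wells (0.1% v/v), median over six images per well.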
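Wherever surviving fraction (nuclei count normalised to DMSO) is given: nuclei counted by high-content imaging of Hoechst-stained cells in laminin-coated 384-well plates, relative to 0.1% DMSO vehicle wells, with staurosporine as cell-death control.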

COc1cc2nc(N3CCN(C(=O)c4ccco4)CC3)nc(N)c2cc1OC [Prazosin hydrochloride]
surviving fraction (E13 [1]; 4.11523 nM): 1.11 | surviving fraction (E13 [1]; 12.34567901 nM): 0.996 | surviving fraction (E13 [1]; 37.037 nM): 1.07 | surviving fraction (E13 [1]; 111.1111111 nM): 0.955 | surviving fraction (E13 [1]; 333.333 nM): 1.04 | surviving fraction (E13 [1]; 1000 nM): 1.03 | surviving fraction (E13 [1]; 3000 nM): 0.815 | surviving fraction (E21 [2]; 4.11523 nM): 1.03 | surviving fraction (E21 [2]; 12.34567901 nM): 1.03 | surviving fraction (E21 [2]; 37.037 nM): 1 | surviving fraction (E21 [2]; 111.1111111 nM): 1.04 | surviving fraction (E21 [2]; 333.333 nM): 1.11 | surviving fraction (E21 [2]; 1000 nM): 0.938 | surviving fraction (E21 [2]; 3000 nM): 0.912 | surviving fraction (E28 [3]; 4.11523 nM): 1.07 | surviving fraction (E28 [3]; 12.34567901 nM): 0.881 | surviving fraction (E28 [3]; 37.037 nM): 1.17 | surviving fraction (E28 [3]; 111.1111111 nM): 0.956 | surviving fraction (E28 [3]; 333.333 nM): 1.2 | surviving fraction (E28 [3]; 1000 nM): 0.907 | surviving fraction (E28 [3]; 3000 nM): 0.976 | surviving fraction (E31 [4]; 4.11523 nM): 0.988 | surviving fraction (E31 [4]; 12.34567901 nM): 1.19 | surviving fraction (E31 [4]; 37.037 nM): 1.13 | surviving fraction (E31 [4]; 111.1111111 nM): 1.03 | surviving fraction (E31 [4]; 333.333 nM): 1.04 | surviving fraction (E31 [4]; 1000 nM): 1.07 | surviving fraction (E31 [4]; 3000 nM): 1 | surviving fraction (E34 [5]; 4.11523 nM): 1.04 | surviving fraction (E34 [5]; 12.34567901 nM): 0.994 | surviving fraction (E34 [5]; 37.037 nM): 1.14 | surviving fraction (E34 [5]; 111.1111111 nM): 0.986 | surviving fraction (E34 [5]; 333.333 nM): 1.11 | surviving fraction (E34 [5]; 1000 nM): 0.837 | surviving fraction (E34 [5]; 3000 nM): 1.04 | surviving fraction (E57 [6]; 4.11523 nM): 1.07 | surviving fraction (E57 [6]; 12.34567901 nM): 1.02 | surviving fraction (E57 [6]; 37.037 nM): 1.09 | surviving fraction (E57 [6]; 111.1111111 nM): 0.961 | surviving fraction (E57 [6]; 333.333 nM): 1 | surviving fraction (E57 [6]; 1000 nM): 0.915 | surviving fraction (E57 [6]; 3000 nM): 0.97 | surviving fraction (FT3469 [7]; 4.11523 nM): 1 | surviving fraction (FT3469 [7]; 12.34567901 nM): 1.14 | surviving fraction (FT3469 [7]; 37.037 nM): 1.03 | surviving fraction (FT3469 [7]; 111.1111111 nM): 1.05 | surviving fraction (FT3469 [7]; 333.333 nM): 1.14 | surviving fraction (FT3469 [7]; 1000 nM): 1.12 | surviving fraction (FT3469 [7]; 3000 nM): 1.06 | phenotypic distance (E13 [8]; 4.11523 nM): 0.601 | phenotypic distance (E13 [8]; 12.34567901 nM): 3.49 | phenotypic distance (E13 [8]; 37.037 nM): 2.1 | phenotypic distance (E13 [8]; 111.1111111 nM): 0.55 | phenotypic distance (E13 [8]; 333.333 nM): 0.666 | phenotypic distance (E13 [8]; 1000 nM): 0.512 | phenotypic distance (E13 [8]; 3000 nM): 2.04 | phenotypic distance (E21 [9]; 4.11523 nM): 0.712 | phenotypic distance (E21 [9]; 12.34567901 nM): 0.547 | phenotypic distance (E21 [9]; 37.037 nM): 0.834 | phenotypic distance (E21 [9]; 111.1111111 nM): 0.524 | phenotypic distance (E21 [9]; 333.333 nM): 0.736 | phenotypic distance (E21 [9]; 1000 nM): 0.384 | phenotypic distance (E21 [9]; 3000 nM): 0.699 | phenotypic distance (E28 [10]; 4.11523 nM): 0.643 | phenotypic distance (E28 [10]; 12.34567901 nM): 0.664 | phenotypic distance (E28 [10]; 37.037 nM): 1.1 | phenotypic distance (E28 [10]; 111.1111111 nM): 0.589 | phenotypic distance (E28 [10]; 333.333 nM): 0.766 | phenotypic distance (E28 [10]; 1000 nM): 1.03 | phenotypic distance (E28 [10]; 3000 nM): 0.426 | phenotypic distance (E31 [11]; 4.11523 nM): 0.642 | phenotypic distance (E31 [11]; 12.34567901 nM): 0.488 | phenotypic distance (E31 [11]; 37.037 nM): 0.739 | phenotypic distance (E31 [11]; 111.1111111 nM): 0.653 | phenotypic distance (E31 [11]; 333.333 nM): 0.984 | phenotypic distance (E31 [11]; 1000 nM): 0.431 | phenotypic distance (E31 [11]; 3000 nM): 0.892 | phenotypic distance (E34 [12]; 4.11523 nM): 0.522 | phenotypic distance (E34 [12]; 12.34567901 nM): 0.593 | phenotypic distance (E34 [12]; 37.037 nM): 0.611 | phenotypic distance (E34 [12]; 111.1111111 nM): 0.647 | phenotypic distance (E34 [12]; 333.333 nM): 0.638 | phenotypic distance (E34 [12]; 1000 nM): 0.628 | phenotypic distance (E34 [12]; 3000 nM): 0.776 | phenotypic distance (E57 [13]; 4.11523 nM): 0.592 | phenotypic distance (E57 [13]; 12.34567901 nM): 0.576 | phenotypic distance (E57 [13]; 37.037 nM): 0.642 | phenotypic distance (E57 [13]; 111.1111111 nM): 0.745 | phenotypic distance (E57 [13]; 333.333 nM): 0.475 | phenotypic distance (E57 [13]; 1000 nM): 0.697 | phenotypic distance (E57 [13]; 3000 nM): 0.95 | phenotypic distance (FT3469 [14]; 4.11523 nM): 0.634 | phenotypic distance (FT3469 [14]; 12.34567901 nM): 0.798 | phenotypic distance (FT3469 [14]; 37.037 nM): 0.909 | phenotypic distance (FT3469 [14]; 111.1111111 nM): 0.541 | phenotypic distance (FT3469 [14]; 333.333 nM): 0.436 | phenotypic distance (FT3469 [14]; 1000 nM): 0.748 | phenotypic distance (FT3469 [14]; 3000 nM): 0.762

CCCCCCNC(=O)n1cc(F)c(=O)[nH]c1=O [Carmofur]
surviving fraction (E13 [1]; 4.1 nM): 0.99 | surviving fraction (E13 [1]; 12.3 nM): 1.04 | surviving fraction (E13 [1]; 37 nM): 0.909 | surviving fraction (E13 [1]; 111.1 nM): 0.986 | surviving fraction (E13 [1]; 333.3 nM): 0.963 | surviving fraction (E13 [1]; 1000 nM): 1.05 | surviving fraction (E13 [1]; 3000 nM): 0.877 | surviving fraction (E21 [2]; 4.1 nM): 0.952 | surviving fraction (E21 [2]; 12.3 nM): 0.91 | surviving fraction (E21 [2]; 37 nM): 0.9 | surviving fraction (E21 [2]; 111.1 nM): 0.957 | surviving fraction (E21 [2]; 333.3 nM): 0.927 | surviving fraction (E21 [2]; 1000 nM): 0.955 | surviving fraction (E21 [2]; 3000 nM): 0.877 | surviving fraction (E28 [3]; 4.1 nM): 1.02 | surviving fraction (E28 [3]; 12.3 nM): 1.19 | surviving fraction (E28 [3]; 37 nM): 0.916 | surviving fraction (E28 [3]; 111.1 nM): 0.949 | surviving fraction (E28 [3]; 333.3 nM): 1.1 | surviving fraction (E28 [3]; 1000 nM): 1.26 | surviving fraction (E28 [3]; 3000 nM): 0.731 | surviving fraction (E31 [4]; 4.1 nM): 0.889 | surviving fraction (E31 [4]; 12.3 nM): 0.903 | surviving fraction (E31 [4]; 37 nM): 0.826 | surviving fraction (E31 [4]; 111.1 nM): 0.961 | surviving fraction (E31 [4]; 333.3 nM): 0.894 | surviving fraction (E31 [4]; 1000 nM): 1.07 | surviving fraction (E31 [4]; 3000 nM): 0.875 | surviving fraction (E34 [5]; 4.1 nM): 0.974 | surviving fraction (E34 [5]; 12.3 nM): 0.829 | surviving fraction (E34 [5]; 37 nM): 0.841 | surviving fraction (E34 [5]; 111.1 nM): 0.884 | surviving fraction (E34 [5]; 333.3 nM): 0.928 | surviving fraction (E34 [5]; 1000 nM): 1 | surviving fraction (E34 [5]; 3000 nM): 0.889 | surviving fraction (E57 [6]; 4.1 nM): 0.882 | surviving fraction (E57 [6]; 12.3 nM): 0.903 | surviving fraction (E57 [6]; 37 nM): 0.919 | surviving fraction (E57 [6]; 111.1 nM): 0.922 | surviving fraction (E57 [6]; 333.3 nM): 1.02 | surviving fraction (E57 [6]; 1000 nM): 0.954 | surviving fraction (E57 [6]; 3000 nM): 0.85 | surviving fraction (FT3469 [7]; 4.1 nM): 0.763 | surviving fraction (FT3469 [7]; 12.3 nM): 0.995 | surviving fraction (FT3469 [7]; 37 nM): 0.811 | surviving fraction (FT3469 [7]; 111.1 nM): 0.832 | surviving fraction (FT3469 [7]; 333.3 nM): 0.955 | surviving fraction (FT3469 [7]; 1000 nM): 0.915 | surviving fraction (FT3469 [7]; 3000 nM): 0.649 | phenotypic distance (E13 [8]; 4.1 nM): 0.618 | phenotypic distance (E13 [8]; 12.3 nM): 0.582 | phenotypic distance (E13 [8]; 37 nM): 0.585 | phenotypic distance (E13 [8]; 111.1 nM): 0.446 | phenotypic distance (E13 [8]; 333.3 nM): 0.744 | phenotypic distance (E13 [8]; 1000 nM): 0.529 | phenotypic distance (E13 [8]; 3000 nM): 0.786 | phenotypic distance (E21 [9]; 4.1 nM): 0.484 | phenotypic distance (E21 [9]; 12.3 nM): 0.616 | phenotypic distance (E21 [9]; 37 nM): 0.756 | phenotypic distance (E21 [9]; 111.1 nM): 0.906 | phenotypic distance (E21 [9]; 333.3 nM): 0.649 | phenotypic distance (E21 [9]; 1000 nM): 0.744 | phenotypic distance (E21 [9]; 3000 nM): 1.09 | phenotypic distance (E28 [10]; 4.1 nM): 0.928 | phenotypic distance (E28 [10]; 12.3 nM): 1.13 | phenotypic distance (E28 [10]; 37 nM): 1.26 | phenotypic distance (E28 [10]; 111.1 nM): 0.901 | phenotypic distance (E28 [10]; 333.3 nM): 0.775 | phenotypic distance (E28 [10]; 1000 nM): 1.21 | phenotypic distance (E28 [10]; 3000 nM): 1.55 | phenotypic distance (E31 [11]; 4.1 nM): 0.818 | phenotypic distance (E31 [11]; 12.3 nM): 0.955 | phenotypic distance (E31 [11]; 37 nM): 1.02 | phenotypic distance (E31 [11]; 111.1 nM): 0.782 | phenotypic distance (E31 [11]; 333.3 nM): 0.838 | phenotypic distance (E31 [11]; 1000 nM): 0.811 | phenotypic distance (E31 [11]; 3000 nM): 0.874 | phenotypic distance (E34 [12]; 4.1 nM): 3.48 | phenotypic distance (E34 [12]; 12.3 nM): 1.19 | phenotypic distance (E34 [12]; 37 nM): 0.943 | phenotypic distance (E34 [12]; 111.1 nM): 1.13 | phenotypic distance (E34 [12]; 333.3 nM): 0.621 | phenotypic distance (E34 [12]; 1000 nM): 0.627 | phenotypic distance (E34 [12]; 3000 nM): 0.693 | phenotypic distance (E57 [13]; 4.1 nM): 0.989 | phenotypic distance (E57 [13]; 12.3 nM): 0.918 | phenotypic distance (E57 [13]; 37 nM): 0.681 | phenotypic distance (E57 [13]; 111.1 nM): 0.66 | phenotypic distance (E57 [13]; 333.3 nM): 0.538 | phenotypic distance (E57 [13]; 1000 nM): 0.74 | phenotypic distance (E57 [13]; 3000 nM): 1.04 | phenotypic distance (FT3469 [14]; 4.1 nM): 0.889 | phenotypic distance (FT3469 [14]; 12.3 nM): 2.05 | phenotypic distance (FT3469 [14]; 37 nM): 1.22 | phenotypic distance (FT3469 [14]; 111.1 nM): 3.24 | phenotypic distance (FT3469 [14]; 333.3 nM): 0.832 | phenotypic distance (FT3469 [14]; 1000 nM): 0.844 | phenotypic distance (FT3469 [14]; 3000 nM): 1.47
